Test results from ChEMBL document CHEMBL4014354, “2'-Chloro,2'-fluoro Ribonucleotide Prodrugs with Potent Pan-genotypic Activity against Hepatitis C Virus Replication in Culture” (J Med Chem, 2017).

Assays:
[1] = Metabolic stability in human blood assessed as compound remaining at 2 uM after 2 hrs by LC-MS/MS method; assay type: ADME, tissue-based; settings: read-out: Stability
[2] = target: T1, DNA polymerase alpha catalytic subunit (Homo sapiens, UniProt P09884); test: Inhibition of human DNA polymerase alpha using 5' end radiolabeled 24nt DNA/48nt DNA as primer/template after 5 mins by PAGE analysis
T1 sequence (P09884 whole entry): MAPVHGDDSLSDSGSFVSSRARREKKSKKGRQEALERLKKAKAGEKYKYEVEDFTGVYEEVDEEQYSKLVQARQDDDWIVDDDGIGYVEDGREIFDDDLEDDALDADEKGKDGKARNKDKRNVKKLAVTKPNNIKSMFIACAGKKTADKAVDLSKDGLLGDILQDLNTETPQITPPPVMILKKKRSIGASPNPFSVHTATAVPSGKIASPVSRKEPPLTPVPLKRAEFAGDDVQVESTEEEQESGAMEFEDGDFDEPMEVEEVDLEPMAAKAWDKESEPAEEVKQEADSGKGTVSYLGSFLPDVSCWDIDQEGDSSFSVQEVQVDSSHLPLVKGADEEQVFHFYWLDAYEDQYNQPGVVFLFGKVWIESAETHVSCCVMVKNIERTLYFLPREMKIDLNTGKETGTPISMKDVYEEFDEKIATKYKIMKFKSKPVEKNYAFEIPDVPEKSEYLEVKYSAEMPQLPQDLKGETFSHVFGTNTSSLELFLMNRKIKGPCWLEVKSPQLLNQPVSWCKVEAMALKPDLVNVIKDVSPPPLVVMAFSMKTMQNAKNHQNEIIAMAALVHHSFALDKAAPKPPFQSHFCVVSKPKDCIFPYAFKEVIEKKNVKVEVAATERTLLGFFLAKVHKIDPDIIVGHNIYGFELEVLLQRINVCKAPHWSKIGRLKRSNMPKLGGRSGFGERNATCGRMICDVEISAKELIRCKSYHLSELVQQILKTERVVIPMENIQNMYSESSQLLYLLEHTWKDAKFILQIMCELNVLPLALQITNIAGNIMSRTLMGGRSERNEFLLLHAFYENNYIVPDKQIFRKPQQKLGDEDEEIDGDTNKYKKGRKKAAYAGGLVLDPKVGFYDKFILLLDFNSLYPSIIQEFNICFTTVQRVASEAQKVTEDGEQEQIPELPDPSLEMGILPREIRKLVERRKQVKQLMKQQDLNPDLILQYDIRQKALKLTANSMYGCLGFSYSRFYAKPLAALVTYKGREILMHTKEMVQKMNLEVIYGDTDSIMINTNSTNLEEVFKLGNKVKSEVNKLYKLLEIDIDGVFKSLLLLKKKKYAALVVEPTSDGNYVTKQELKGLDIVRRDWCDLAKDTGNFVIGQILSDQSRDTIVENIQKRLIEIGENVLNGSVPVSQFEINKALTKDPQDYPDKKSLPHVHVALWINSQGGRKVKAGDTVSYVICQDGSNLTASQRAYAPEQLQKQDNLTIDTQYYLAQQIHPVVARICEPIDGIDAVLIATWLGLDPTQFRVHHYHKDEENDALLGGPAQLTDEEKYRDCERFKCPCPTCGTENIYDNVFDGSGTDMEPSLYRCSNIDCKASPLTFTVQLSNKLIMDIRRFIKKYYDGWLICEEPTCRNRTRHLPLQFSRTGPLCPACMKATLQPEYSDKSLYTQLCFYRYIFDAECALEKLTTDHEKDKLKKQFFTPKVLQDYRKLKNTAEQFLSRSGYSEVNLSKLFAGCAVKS

[3] = target: DNA-directed RNA polymerase, mitochondrial (Homo sapiens) (UniProt O00411); test: Inhibition of human POLRMT using 5'-P32-RNA/DNA hybrid assessed as incorporation of UTP at 100 uM after 2 hrs by scintillation counting method relative to control; set-up: scale not given: the % may be the effect or the level left
[4] = Inhibition of human DNA polymerase gamma using 5' end radiolabeled 24nt DNA/36nt DNA as primer/template after 120 mins by PAGE analysis
[5] = Inhibition of RNA polymerase 2 isolated from human HeLa cell nuclear extract assessed as decrease in incorporation of P32-alpha-CTP after 2 hrs by scintillation counting method; assay type: cell-free
DNA polymerase beta = DNA polymerase beta (Homo sapiens, UniProt P06746); test: Inhibition of human DNA polymerase beta using 5' end radiolabeled 24nt DNA/48nt DNA as primer/template after 5 mins by PAGE analysis

Sequence of DNA-directed RNA polymerase, mitochondrial (Homo sapiens) (O00411 whole entry): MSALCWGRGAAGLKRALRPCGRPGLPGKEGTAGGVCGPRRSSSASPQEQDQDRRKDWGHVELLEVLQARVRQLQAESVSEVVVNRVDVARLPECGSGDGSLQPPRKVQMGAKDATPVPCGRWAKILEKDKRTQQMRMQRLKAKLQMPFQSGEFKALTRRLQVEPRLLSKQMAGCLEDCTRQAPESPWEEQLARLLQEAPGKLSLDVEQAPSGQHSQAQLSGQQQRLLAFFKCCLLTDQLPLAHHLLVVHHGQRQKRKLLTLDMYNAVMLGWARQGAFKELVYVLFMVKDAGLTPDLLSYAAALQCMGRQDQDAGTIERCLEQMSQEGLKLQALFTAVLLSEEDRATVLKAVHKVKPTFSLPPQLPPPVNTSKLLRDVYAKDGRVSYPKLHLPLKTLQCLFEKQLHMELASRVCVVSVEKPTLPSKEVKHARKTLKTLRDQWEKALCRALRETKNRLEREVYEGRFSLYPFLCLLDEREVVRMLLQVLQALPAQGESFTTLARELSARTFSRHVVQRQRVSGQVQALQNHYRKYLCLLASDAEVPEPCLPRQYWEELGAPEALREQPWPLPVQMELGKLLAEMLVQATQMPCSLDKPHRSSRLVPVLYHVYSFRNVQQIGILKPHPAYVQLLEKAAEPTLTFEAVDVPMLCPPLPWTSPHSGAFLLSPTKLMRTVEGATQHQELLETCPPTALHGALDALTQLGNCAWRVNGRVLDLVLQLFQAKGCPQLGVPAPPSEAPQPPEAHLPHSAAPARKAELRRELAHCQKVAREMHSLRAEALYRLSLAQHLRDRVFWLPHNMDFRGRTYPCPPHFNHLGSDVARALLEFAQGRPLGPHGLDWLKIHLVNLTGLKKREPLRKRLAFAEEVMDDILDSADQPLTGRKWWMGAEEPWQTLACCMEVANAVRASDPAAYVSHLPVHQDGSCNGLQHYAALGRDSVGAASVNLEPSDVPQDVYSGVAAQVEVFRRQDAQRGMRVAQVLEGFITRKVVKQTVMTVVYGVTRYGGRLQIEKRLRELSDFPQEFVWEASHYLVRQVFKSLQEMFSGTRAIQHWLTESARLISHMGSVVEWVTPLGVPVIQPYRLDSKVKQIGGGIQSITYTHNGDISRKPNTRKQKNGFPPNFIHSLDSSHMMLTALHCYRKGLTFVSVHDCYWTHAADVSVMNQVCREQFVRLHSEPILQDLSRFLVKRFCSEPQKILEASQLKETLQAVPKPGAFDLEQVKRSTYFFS

Row | Compound | remaining at 2 h, 2 µM [1] | IC50 [2] | Activity [3] | IC50 [4] | IC50 [5] | IC50 (DNA polymerase beta)
1 | CC1CC(OC(=O)C(O)c2ccccc2)CC(C)(C)N1C (stereo unspecified) [EUCATROPINE] | 19% |  |  |  |  | 
2 | C[C@@]1(F)[C@H](O)[C@@H](COP(=O)(O)OP(=O)(O)OP(=O)(O)O)O[C@H]1n1ccc(=O)[nH]c1=O [GS-461203] |  | > 100 µM | 3.1% | > 100 µM | > 100 µM | > 100 µM
